Measured values as given in patent US11453681B2, “Substituted eneoxindoles and uses thereof” (Gilead Sciences, Inc., priority 2019, dated 2022).

molecular target: human HPK1 (MAP4K1) (Homo sapiens (Human), UniProt Q92918); experiment: HPK1 IC50 Assay; format: biochemical; conditions: recombinant HPK1 kinase domain 0.15 nM, synthetic peptide substrate STK S1, 3 hours at 25° C., time-resolved fluorescence energy transfer; geometric mean of multiple experiments
Experimental: The enzymatic activity of human HPK1 (MAP4K1) was monitored in a biochemical assay in the presence or absence of compounds and using a synthetic peptide substrate. An increase in phosphorylation of the peptide by HPK1 was indicative of its kinase activity.
Recombinant HPK1 kinase domain produced via baculovirus infection of insect cells was obtained from Proteros (Proteros Biostructures #PR-0322) and was pre-activated in the presence of 2 mM ATP (Sigma-Aldrich, cat #GE27-2056-01) and 2 mM magnesium chloride for 16 hours at 4° C. The protein reaction mixture was then loaded to a desalting column (Thermo Fisher Scientific, Cat #89889) to remove excess ATP. HPK1 was eluted with buffer containing 20 mM Tris (2-Amino-2-(hydroxymethyl)propane-1,3-diol) pH 8.0, 150 mM NaCl, 2 mM dithiothreitol and 5% glycerol, and was frozen at −80° C. for later use. HPK1 dual phosphorylation was confirmed by mass spectrometry.
Ten nanoliters of test compounds dissolved in DMSO at various concentrations were dispensed into a 384-well ProxiPlate (PerkinElmer #6008289). Five microliters of a solution of recombinant HPK1 diluted in HPK1 kinase assay buffer (50 mM BES [N,N-Bis(2-hydroxyethyl)-2-aminoethanesulfonic acid], pH 7.0; 10 mM magnesium chloride; 0.01% Triton X-100; 1 mM dithiothreitol; 0.01% bovine serum albumin; 0.1 mM sodium orthovanadate) was added to the compound-containing plate and was incubated for 15 minutes at 25° C. Five microliters of a mixture of ATP (Sigma-Aldrich #A6559) and peptide substrate STK Si (Cisbio #61ST1BLC) diluted in HPK1 kinase assay buffer was then added to start the reaction. Final concentrations were 0.15 nM for HPK1, […], and 1 […]. The reaction mixture was incubated at 25° C. for 3 hours and was stopped with the addition of 10 μl of an EDTA (Ethylenediaminetetraacetic acid)-containing detection buffer (Cisbio #62SDBRDF) supplemented with Europium cryptate-labeled anti-phospho-serine/threonine antibodies (Cisbio #62ST1PEJ) and XL665-labeled streptavidin (Cisbio #610SAXLG). The mixture was incubated for 16 hours at room temperature and peptide phosphorylation was measured by time-resolved fluorescence energy transfer (665 nm/620 nm) on an Envision plate reader (PerkinElmer).
Data in Table 1 were normalized based on positive (staurosporine) and negative (DMSO) controls. Least squares curve fittings were performed using a four-parameter variable slope nonlinear regression model. IC50 is defined as the concentration of compound required to inhibit 50% of maximum phosphorylation. IC50 values from multiple experiments were averaged by geometric mean and the standard deviation was calculated.

Chain of human HPK1 (MAP4K1) (Q92918 17-274): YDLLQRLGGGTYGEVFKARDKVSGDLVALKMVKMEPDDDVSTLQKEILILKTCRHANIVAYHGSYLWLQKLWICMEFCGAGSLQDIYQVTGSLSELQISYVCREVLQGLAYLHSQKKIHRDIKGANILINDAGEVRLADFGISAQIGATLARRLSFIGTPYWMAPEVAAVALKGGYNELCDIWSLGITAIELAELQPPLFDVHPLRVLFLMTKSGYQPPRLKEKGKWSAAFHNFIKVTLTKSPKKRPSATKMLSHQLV

Compound | IC50
Cc1c(-c2ccc3c(c2)C(=Cc2cccs2)C(=O)N3)cnc2c1NCCO2 (racemic) [Compound C19, (E and Z)-5-(8-methyl-2,3-dihydro-1H-pyrido[2,3-b][1,4]oxazin-7-yl)-3-(thiophen-2-ylmethylene)indolin-2-one] | 1.88 nM
CCN(CC)CCNC(=O)c1c(C)[nH]c(/C=C2\C(=O)Nc3cc(F)c(-c4cnc5c(c4C)NCCO5)cc32)c1C [Compound C1, (Z)—N-(2-(diethylamino)ethyl)-5-((6-fluoro-5-(8-methyl-2,3-dihydro-1H-pyrido[2,3-b][1,4]oxazin-7-yl)-2-oxoindolin-3-ylidene)methyl)-2,4-dimethyl-1H-pyrrole-3-carboxamide] | 0.05 nM
CCc1nc(C)c(/C=C2\C(=O)Nc3ccc(-c4cnc5c(c4C)NCCO5)cc32)[nH]1 [Compound C6, (Z)-3-((2-ethyl-4-methyl-1H-imidazol-5-yl)methylene)-5-(8-methyl-2,3-dihydro-1H-pyrido[2,3-b][1,4]oxazin-7-yl)indolin-2-one] | 0.12 nM
CCN(CC)CCNC(=O)c1c(C)[nH]c(/C=C2\C(=O)Nc3c(F)cc(-c4cnc5c(c4C)NCCO5)cc32)c1C [Compound C9, (Z)—N-(2-(diethylamino)ethyl)-5-((7-fluoro-5-(8-methyl-2,3-dihydro-1H-pyrido[2,3-b][1,4]oxazin-7-yl)-2-oxoindolin-3-ylidene)methyl)-2,4-dimethyl-1H-pyrrole-3-carboxamide] | 0.09 nM
C/C(=C1/C(=O)Nc2ccc(-c3cnc4c(c3C)NCCO4)cc21)c1cnc[nH]1 [Compound C11, (Z)-3-(1-(1H-imidazol-5-yl)ethylidene)-5-(8-methyl-2,3-dihydro-1H-pyrido[2,3-b][1,4]oxazin-7-yl)indolin-2-one] | 0.44 nM
Cc1c(-c2cc(F)c3c(c2C)/C(=C/c2cc(C#N)c[nH]2)C(=O)N3)cnc2c1NCCO2 [Compound C12, (Z)-5-((7-fluoro-4-methyl-5-(8-methyl-2,3-dihydro-1H-pyrido[2,3-b][1,4]oxazin-7-yl)-2-oxoindolin-3-ylidene)methyl)-1H-pyrrole-3-carbonitrile] | 0.67 nM
Cc1c[nH]c(/C=C2\C(=O)Nc3c(F)cc(-c4cnc5c(c4C)NCCO5)c(C)c32)c1 [Compound C13, (Z)-7-fluoro-4-methyl-3-((4-methyl-H-pyrrol-2-yl)methylene)-5-(8-methyl-2,3-dihydro-1H-pyrido[2,3-b][1,4]oxazin-7-yl)indolin-2-one] | 0.51 nM
Cc1c(-c2cc(F)c3c(c2C)/C(=C/c2ccc[nH]2)C(=O)N3)cnc2c1NCCO2 [Compound C14, (Z)-3-((1H-pyrrol-2-yl)methylene)-7-fluoro-4-methyl-5-(8-methyl-2,3-dihydro-1H-pyrido[2,3-b][1,4]oxazin-7-yl)indolin-2-one] | 0.29 nM
CCN(CC)CCNC(=O)c1c(C)[nH]c(/C=C2\C(=O)Nc3ccc(-c4cnc5c(c4C)NCCO5)cc32)c1C [Compound C16, (Z)—N-(2-(diethylamino)ethyl)-2,4-dimethyl-5-((5-(8-methyl-2,3-dihydro-1H-pyrido[2,3-b][1,4]oxazin-7-yl)-2-oxoindolin-3-ylidene)methyl)-1H-pyrrole-3-carboxamide] | 0.05 nM
Cc1c(-c2ccc3c(c2)/C(=C/c2ccns2)C(=O)N3)cnc2c1NCCO2 [Compound C18, (Z)-3-(isothiazol-5-ylmethylene)-5-(8-methyl-2,3-dihydro-1H-pyrido[2,3-b][1,4]oxazin-7-yl)indolin-2-one] | 3.02 nM
Cc1c(-c2ccc3c(c2)/C(=C/c2cc(Br)c[nH]2)C(=O)N3)cnc2c1NCCO2 [Compound C20, (Z)-3-((4-bromo-1H-pyrrol-2-yl)methylene)-5-(8-methyl-2,3-dihydro-1H-pyrido[2,3-b][1,4]oxazin-7-yl)indolin-2-one] | 0.16 nM
Cc1c(-c2ccc3c(c2)/C(=C/c2cc(C#N)c[nH]2)C(=O)N3)cnc2c1NCCO2 [Compound C21, (Z)-5-((5-(8-methyl-2,3-dihydro-1H-pyrido[2,3-b][1,4]oxazin-7-yl)-2-oxoindolin-3-ylidene)methyl)-1H-pyrrole-3-carbonitrile] | 0.07 nM

The next lines start with the values.

IC50 | Compound
1.95 nM | Cc1ncc(/C=C2\C(=O)Nc3ccc(-c4ccc5c(c4C)NCCO5)cc32)[nH]1 [Compound C2, (Z)-3-((2-methyl-1H-imidazol-5-yl)methylene)-5-(5-methyl-3,4-dihydro-2H-benzo[b][1,4]oxazin-6-yl)indolin-2-one]
0.19 nM | Cc1ncc(/C=C2\C(=O)Nc3cc(C)c(-c4cnc5c(c4C)NCCO5)cc32)[nH]1 [Compound C3, (Z)-6-methyl-3-((2-methyl-1H-imidazol-5-yl)methylene)-5-(8-methyl-2,3-dihydro-1H-pyrido[2,3-b][1,4]oxazin-7-yl)indolin-2-one]
0.15 nM | Cc1ncc(/C=C2\C(=O)Nc3c(F)cc(-c4cnc5c(c4C)NCCO5)c(C)c32)[nH]1 [Compound C4, (Z)-7-fluoro-4-methyl-3-((2-methyl-1H-imidazol-5-yl)methylene)-5-(8-methyl-2,3-dihydro-1H-pyrido[2,3-b][1,4]oxazin-7-yl)indolin-2-one]
7.43 nM | Cc1ncc(/C=C2\C(=O)Nc3c(F)cc(-c4cnc5c(c4)NCCO5)c(C)c32)[nH]1 [Compound C5, (Z)-5-(2,3-dihydro-H-pyrido[2,3-b][1,4]oxazin-7-yl)-7-fluoro-4-methyl-3-((2-methyl-TH-imidazol-5-yl)methylene)indolin-2-one]
0.29 nM | Cc1ncc(/C=C2\C(=O)Nc3cc(Cl)c(-c4cnc5c(c4C)NCCO5)cc32)[nH]1 [Compound C7, (Z)-6-chloro-3-((2-methyl-1H-imidazol-5-yl)methylene)-5-(8-methyl-2,3-dihydro-1H-pyrido[2,3-b][1,4]oxazin-7-yl)indolin-2-one]
0.18 nM | Cc1ncc(/C=C2\C(=O)Nc3cc(F)c(-c4cnc5c(c4C)NCCO5)cc32)[nH]1 [Compound C8, (Z)-6-fluoro-3-((2-methyl-H-imidazol-5-yl)methylene)-5-(8-methyl-2,3-dihydro-1H-pyrido[2,3-b][1,4]oxazin-7-yl)indolin-2-one]
0.22 nM | Cc1ncc(/C=C2\C(=O)Nc3c(F)cc(-c4cnc5c(c4C)NCCO5)cc32)[nH]1 [Compound C10, (Z)-7-fluoro-3-((2-methyl-1H-imidazol-5-yl)methylene)-5-(8-methyl-2,3-dihydro-1H-pyrido[2,3-b][1,4]oxazin-7-yl)indolin-2-one]
0.07 nM | Cc1ncc(/C=C2\C(=O)Nc3ccc(-c4cnc5c(c4C)NCCO5)cc32)[nH]1 [Compound C15, (Z)-3-((2-methyl-H-imidazol-5-yl)methylene)-5-(8-methyl-2,3-dihydro-1H-pyrido[2,3-b][1,4]oxazin-7-yl)indolin-2-one]
0.05 nM | Cc1ccc(/C=C2\C(=O)Nc3ccc(-c4cnc5c(c4C)NCCO5)cc32)[nH]1 [Compound C17, (Z)-3-((5-methyl-H-pyrrol-2-yl)methylene)-5-(8-methyl-2,3-dihydro-1H-pyrido[2,3-b][1,4]oxazin-7-yl)indolin-2-one]
2.61 nM | Cc1c[nH]c(/C=C2\C(=O)Nc3c(Cl)cc(-c4cnc5c(c4C)NCCO5)cc32)c1 [Compound C22, (Z)-7-chloro-3-((4-methyl-1H-pyrrol-2-yl)methylene)-5-(8-methyl-2,3-dihydro-1H-pyrido[2,3-b][1,4]oxazin-7-yl)indolin-2-one]
